In US20210024499A1, “OXIDIZED BIS(3-INDOLYL)METHANES AND USES THEREOF” (Sanford Burnam Prebys Medical Discovery Institute, priority 2018, published 2021):
pIC50: −log10 of the molar value.

Columns and labels:
HCT116 cancer cells [1] = test: Apoptosis assay, Annexin V-FITC/propidium iodide flow cytometry; assay type: cell-based; settings: Homo sapiens, HCT-116, 6 hours, Annexin V-FITC/PI flow cytometry (Table 4)
Description: HCT116 cancer cells plated at a density of 1×10^6 per well on six-well plates were treated with different concentration of test compounds for 6 hours, and then the suspension and the adherent cells were collected, stained with Annexin V-FITC for 15 minutes and with propodium iodide for 5 minutes, and analyzed immediately by cytoFLEX Flow Cytometry System (Beckman-Coulter, Miami, Fla., USA) using FITC and PC5.5 (Table 4).

HCT116 cancer cells [2] = test: Cell viability (MTT) assay, HCT116; assay type: cell-based; settings: Homo sapiens, HCT-116; inhibiting the growth of HCT116 cancer cells, cell viability assay (Table 5)
Description: (§1) Cell viability was analyzed by using a colorimetric 3-(4,5-dimethylthiazol-[…]2-yl)-2,5-diphenyletetrazolium Bromide (MTT) assay that determines mitochondrial dehydrogenase activities in the living cells with a colorimetric method. Cells treated with test compounds were incubated with MTT and their effect on the viability of the cells was assayed by the ability of treated cells to reduce the yellow tetrazolium dye MTT to its insoluble formazan, which has a purple color. […]

[3] = system: Nur77 and pBind-RXRa-LBD-E453,6A; test: Mammalian one hybrid assay, RXRa-LBD/E453,6A mutant with Nur77; assay type: cell-based; settings: cells transfected with Nur77 and pBind-RXRa-LBD-E453,6A
Description: (§2) HEK293T cells were co-transfected with pG5 Luciferase reporter together with the plasmid encoding RXRa-LBD fused with the Gal4 DNA-binding domain and other expression plasmids. After transfection, cells were treated with DMSO or a test compound, and assayed by using the Dual-Luciferase Reporter Assay System (Promega). Transfection efficiency was normalized to Renilla luciferase activity.
(§3) To exclude the possibility that Compound 1 acted on RXRa, Glu453 and Glu456 in the RXRa activation function 2 (AF2) region were substituted with Ala and the resulting mutant, RXRa-LBD/E453,6A, was used.

pBind-RXRa-LBD and Nur77 = test: Mammalian one hybrid assay, Gal4-RXRa-LBD with Nur77; assay type: cell-based; settings: cotransfection of pBind-RXRa-LBD and Nur77, Dual-Luciferase (FIG. 10)
Description: as §2, §3

Nur77 [4] = molecular target: T1, Nur77 (Homo sapiens, UniProt P22736); test: Cellular fractionation and immunostaining: mitochondrial targeting of Nur77; assay type: cell-based; settings: mitochondria fractionation, 1μM
T1 construct: expressed in transfected cells
Description: (§4) For cellular fractionation, cells were lysed in cold buffer A (10 mM HEPES-KOH (pH 7.9), 1.5 mM MgCl2, 10 mM KCl, 0.5 mM dithiothreitol) with a cocktail of proteinase inhibitors on ice for 10 min as described. Cytoplasmic fraction was collected by centrifuging at 6000 rpm for 30 seconds. Pellets containing nuclei were resuspended in cold high-salt buffer C (20 mM HEPES-KOH (pH 7.9), 25% glycerol, 420 mM NaCl, 1.5 mM MgCl2, 0.2 mM EDTA, 0.5 mM dithiothreitol) with a cocktail of proteinase inhibitors on ice for 30 minutes.

Nur77 [5] = test: as above; assay type: cell-based; settings: immunostaining
Description: as §4

MDA-MB-231 cancer cells = test: Cell viability (MTT) assay, MDA-MB-231; assay type: cell-based; settings: Homo sapiens; inhibiting the growth of MDA-MB-231 cancer cells, cell viability assay (Table 6)
Description: as §1

PyMT mammary tumor = test: MMTV-PyMT mice breast cancer model; assay type: in vivo
Description: Female MMTV-PyMT mice of 12 weeks old were randomly divided into two groups (n=7 each), treated with a daily oral dose of test compound for 18 days. Standard histopathological analysis of tumor tissue was performed (see Example A-19). Test compounds were dissolved in DMSO and diluted with normal saline containing 5.0% (V/V) Tween-80 to a final concentration 0.5 mg/ml. Normal saline with DMSO and 5.0% Tween-80 was employed as the vehicle control.
4 μm thick sections were deparaffinized and rehydrated using xylene and a graded series of ethanol (100, 95, 85, 75, 50%), followed by washing in PBS. Antigen retrieval was performed in 10 mM sodium citrate buffer (pH 6.0), which was microwaved at 100° C. for 20 minutes. After rinsed twice in PBS, sections were blocked at room temperature for 1 hour by using 10% normal goat serum, followed by incubation with anti-ki-67, anti-cleaved-caspase-3, overnight (at least 17 hours) at 4° C. Colors were developed with a DAB horseradish peroxidase color development kit.

MDA-MB-231 cells = test: PARP cleavage assay (Western blotting), MDA-MB-231; assay type: cell-based; settings: 6 hours
Excerpt: (§5) Compound 1a had no effect under the same conditions (FIG. 1A). […] Compound 1a, 28a, 47a, 48a, 73a, 39a, 70a, 103a, 89a and 88a had no effect under the same conditions (FIG. 3B-C).

[6] = system: Nur77 interaction with Bcl-2; test: Confocal microscopy colocalization of Nur77 with Bcl-2; assay type: cell-based
[7] = system: mTOR markers p-S6 and p-4EBP1; test: mTOR inhibition: expression of mTOR markers; assay type: cell-based; settings: MDA-MB-231 cells, 1 μM, 6 hours
[8] = system: Nur77 interaction with Bcl-2; test: Cell-based co-immunoprecipitation of Nur77 and Bcl-2; settings: Nur77 transfected in HeLa cells
Description: Western blotting and co-immunopreciptations (co-IP) were performed. Briefly, cells transfected with or without expression vectors for Nur77 and Bcl-2 were treated with test compounds for 2 hours. The effect of compounds on the interaction of endogenous or transfected Nur77 and Bcl-2 was analyzed by co-immunoprecipitation using appropriate antibodies. Proteins immunoprecipitated from cells by an appropriate anti-Nur77 or anti-Bcl-2 antibody were analyzed by Western blotting.

HCT116 cells = test: PARP cleavage assay (Western blotting), HCT116; assay type: cell-based; settings: 0.5 μM, 6 hours, Western blotting
Excerpt: as §5

T1 sequence (P22736 whole entry): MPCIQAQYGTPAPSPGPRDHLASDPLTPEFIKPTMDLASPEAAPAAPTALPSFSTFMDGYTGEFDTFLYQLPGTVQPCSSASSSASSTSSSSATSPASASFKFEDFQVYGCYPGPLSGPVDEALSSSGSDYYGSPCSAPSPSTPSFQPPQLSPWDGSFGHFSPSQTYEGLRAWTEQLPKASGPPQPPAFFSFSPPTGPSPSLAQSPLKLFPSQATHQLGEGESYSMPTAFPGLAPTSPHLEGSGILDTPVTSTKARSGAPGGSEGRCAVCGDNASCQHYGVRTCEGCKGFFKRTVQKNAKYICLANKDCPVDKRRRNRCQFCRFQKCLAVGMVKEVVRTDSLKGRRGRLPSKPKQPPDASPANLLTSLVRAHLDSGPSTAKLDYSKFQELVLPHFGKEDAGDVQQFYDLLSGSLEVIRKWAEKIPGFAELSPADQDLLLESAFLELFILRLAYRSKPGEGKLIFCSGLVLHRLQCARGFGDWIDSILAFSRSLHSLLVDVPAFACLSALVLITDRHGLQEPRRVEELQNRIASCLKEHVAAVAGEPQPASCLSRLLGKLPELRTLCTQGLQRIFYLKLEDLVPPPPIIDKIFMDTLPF

## O=C(O)c1ccc([C+](c2c[nH]c3ccccc23)c2c[nH]c3ccccc23)cc1 [Compound 82, Bis(1H-indol-3-yl)(4-carboxyphenyl)methylium methanesulfonate]
HCT116 cancer cells [1]
  pIC50: 5.30 to 6.30
HCT116 cancer cells [2]
  pIC50: 5.30 to 6.30

## CC1=C(/C=C/C(C)=C\C=C\C(C)=C\C(=O)O)C(C)(C)CCC1 [Compound 9-cis-RA, 9-cis-RA, reference compound]
[3]
  reporter transcriptional activity: failed to induce the reporter activity
pBind-RXRa-LBD and Nur77
  reporter transcriptional activity: strongly activate

## Clc1ccc([C+](c2c[nH]c3ccccc23)c2c[nH]c3ccccc23)cc1 [Compound 5, Bis(1H-indol-3-yl)(4-chlorophenyl)methylium methanesulfonate]
HCT116 cancer cells [1]
  pIC50: > 6.30
HCT116 cancer cells [2]
  pIC50: > 6.30

## COc1ccc([C+](c2c[nH]c3ccccc23)c2c[nH]c3ccccc23)cc1 [Compound 7, Bis(1H-indol-3-yl)(4-methoxyphenyl)methylium methanesulfonate]
HCT116 cancer cells [1]
  pIC50: 5.30 to 6.30
HCT116 cancer cells [2]
  pIC50: 5.30 to 6.30

## Cn1cc([C+](c2ccc(C(F)(F)F)cc2)c2c[nH]c3ccccc23)c2ccccc21 [Compound 28, (1-Methyl-1H-indol-3-yl)(1H-indol-3-yl)(4-(trifluoromethyl)phenyl)methylium methanesulfonate]
Nur77 [4]
  Myc-Nur77 in heavy membrane (HM) fraction: accumulated in the mitochondria-enriched heavy membrane (HM) fraction
Nur77 [5]
  Myc-Nur77-LBD colocalization with mitochondria: colocalized extensively with the mitochondria
MDA-MB-231 cancer cells
  pIC50: > 6.30
PyMT mammary tumor; 3 mg/kg
  expression levels of mTOR markers p-S6 and p-mTOR in tumor: markedly reduced
PyMT mammary tumor; 3 mg/kg daily oral, 18 days
  growth of PyMT mammary tumor: inhibited the growth of PyMT mammary tumor
MDA-MB-231 cells; 0.5 μM
  PARP cleavage: effectively induced PARP cleavage
MDA-MB-231 cells; 1 μM
  PARP cleavage: effectively induce PARP cleavage
[6]
  colocalization of transfected GFP-Nur77 (and GFP-Nur77-LBD) with Bcl-2: promoted extensive colocalization
HCT116 cancer cells [2]
  pIC50: > 6.30
[7]
  expression levels of mTOR markers p-S6 and p-4EBP1: reduced the expression levels
[8]
  Nur77 interaction with Bcl-2 (Co-IP): interacted with Bcl-2

## COC(=O)c1ccc([C+](c2c[nH]c3ccccc23)c2c[nH]c3ccccc23)cc1 [Compound 8, Bis(1H-indol-3-yl)(4-(methoxycarbonyl)phenyl)methylium methanesulfonate]
HCT116 cancer cells [1]
  pIC50: > 6.30
HCT116 cancer cells [2]
  pIC50: > 6.30

## FC(F)(F)c1ccc(C(c2c[nH]c3ccccc23)c2c[nH]c3ccccc23)cc1 [Compound 1a, reference compound]
MDA-MB-231 cancer cells
  pIC50: ≤ 5.30
HCT116 cells
  PARP cleavage: no effect
MDA-MB-231 cells; 0.5 μM
  PARP cleavage: no effect
HCT116 cancer cells [2]
  pIC50: ≤ 5.30

## Fc1cccc2c([C+](c3ccc(C(F)(F)F)cc3)c3c[nH]c4ccccc34)c[nH]c12.[Cl-] [Compound 71, (7-Fluoro-1H-indol-3-yl)(1H-indol-3-yl)(4-(trifluoromethyl)phenyl)methylium chloride]
MDA-MB-231 cancer cells
  pIC50: > 6.30
MDA-MB-231 cells; 1 μM
  PARP cleavage: effectively induce PARP cleavage
HCT116 cancer cells [2]
  pIC50: > 6.30
[7]
  expression levels of mTOR markers p-S6 and p-4EBP1: reduced the expression levels
